Measurements: PubChem BioAssay AID651971 (The Scripps Research Institute Molecular Screening Center, 2013)
Calls of active or inactive are those of the source. How the calls were made is not given here.

Molecular target: methionyl-tRNA synthetase (Trypanosoma brucei brucei) (UniProt Q38C91)
Assay: inhibition of trypanosome methionyl-tRNA synthetase – biochemical, luminescence, dose response (AID 651971)
Conditions: recombinant T. brucei MetRS, luminescence (ATP consumption)

methionyl-tRNA synthetase (Trypanosoma brucei brucei), sequence (Q38C91 1-773): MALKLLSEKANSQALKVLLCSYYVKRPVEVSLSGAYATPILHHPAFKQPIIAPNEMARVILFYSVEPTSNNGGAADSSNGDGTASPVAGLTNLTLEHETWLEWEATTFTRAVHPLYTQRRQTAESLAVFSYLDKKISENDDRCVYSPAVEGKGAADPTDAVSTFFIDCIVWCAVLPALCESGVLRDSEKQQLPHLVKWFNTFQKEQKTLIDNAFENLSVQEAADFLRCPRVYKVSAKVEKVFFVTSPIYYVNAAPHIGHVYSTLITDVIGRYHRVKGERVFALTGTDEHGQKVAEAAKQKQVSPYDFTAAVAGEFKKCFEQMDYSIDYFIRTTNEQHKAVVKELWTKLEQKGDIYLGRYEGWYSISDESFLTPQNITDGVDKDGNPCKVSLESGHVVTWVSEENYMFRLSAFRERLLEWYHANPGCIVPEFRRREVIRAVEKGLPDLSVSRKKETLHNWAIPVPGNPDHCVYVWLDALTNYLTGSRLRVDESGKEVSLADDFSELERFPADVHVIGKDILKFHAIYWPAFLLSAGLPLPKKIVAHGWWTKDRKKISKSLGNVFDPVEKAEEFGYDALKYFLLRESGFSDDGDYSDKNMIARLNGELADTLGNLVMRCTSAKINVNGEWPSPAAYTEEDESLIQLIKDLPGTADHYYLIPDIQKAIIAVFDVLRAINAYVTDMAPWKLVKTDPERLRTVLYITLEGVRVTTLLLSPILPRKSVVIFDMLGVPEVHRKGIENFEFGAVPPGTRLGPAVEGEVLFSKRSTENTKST

IC50: > 119 µM (inactive)
Compound: Cc1ccc(C(=O)Nn2c(O)c(C=C3N=c4ccccc4=N3)sc2=S)cc1
